Test results published in patent US20080139407A1, “Segment synthesis” (PEPSCAN SYSTEMS B. V., priority 2000, published 2008).
*: point of attachment. BrAc = O=C(CBr)*

What was measured:
monoclonal antibody-01 = test: Spotted peptide constructs tested against monoclonal antibody-01, indirect fluorescence detection; format: binding; conditions: peptides spotted in 1 μl to 0.25 nl
Procedure: FIG. 2. A) Microturisation of spots of peptide constructs. Constructs were tested against the same monoclonal antibody-01 as was tested in FIG. 1. Binding was made visible using indirect fluorescence detection. Peptide 1, sequence with an N-terminal bromoacetamide, was synthesised on the complete surface. Peptide construct 6-1 is the same as construct 125 in FIG. 1. Peptides 2 up to 8, containing a cysteine residue, were spotted in different volumes ranging from 1 μl to 0.25 nl using piezo drop-on-demand technology. […] The identified epitope is shown in black. The disclosed peptide is shown in SEQ ID NO: 7.
The bromoacetamide peptide was covalently bound to a functionalised polypropylene/polyacrylic acid solid support in 3 μl wells as described above. The cysteine-containing sequences were synthesised on and cleaved from functionalised polyethylene pins as described above. […] On a surface of a solid support peptides are synthesized with a bromoacetamide group at the N-terminus as described above. […]

monoclonal antibody-03 = test: Control test of peptide-covered surface with monoclonal antibody-03, indirect fluorescence detection; format: binding; conditions: peptide present on the whole square
[1] = tested on: biotinylated DNA (3′-TATTCTCCGGACGAGTACCGTGAAGGGTC-Biotin-5′); test: Binding of biotinylated DNA by the construct of two PNAs, detected with streptavidin-horse radish peroxidase and ABTS; conditions: miniwell setup, polypropylene surface
Description: FIG. 10. A) Schematic presentation of a DNA/RNA scan. The constructs are scanned with a labeled protein, for example a regulatory protein, or another DNA or PNA strand (top), or alternatively overlapping peptides are scanned with biotynilated RNA, DNA or PNA (bottom). The oligonucleotide sequences are shown in SEQ ID NOS 661-666, respectively, in order of appearance. B) Working example with biotinylated DNA on construct of two PNA's.
Chemistry in short: Detection of the binding of Biotinylated DNA by the construct of two PNAs. In miniwell setup the polypropylene (PP) surface of the miniwells was functionalized with carboxyl groups using gamma irradiation (12 kGy) in the presence of CuSO4 and 6% acrylic acid. Subsequently the PP surface was amino group functionalized (using BocHMDA/DCC/HOBt with subsequent removal of the Boc group with TFA). Next the amino groups were converted in thiol groups by coupling of Fmoc-Cys-(Trt) using DCC/HOBt, removal of the Fmoc group, acetylation of the amino group followed by removal of the Trt by TFA/triethyl silan. To this PP surface functionalized with thiol groups a PNA (PNA1) was coupled which contains N-terminal a bromoacetyl group and C-terminal an extra Cys-S-tBu (the Bromo group of the PNA reacts to the thiol group of the surface). After removal of the S-tBu (using NaBH4) of the Cys-S-tBu, the coupled PNA has a thiol group on C-terminal end. […]

Row | Substance | recognition / binding by monoclonal antibody-01 (monoclonal antibody-01) | recognition by monoclonal antibody-03 (monoclonal antibody-03) | binding of biotinylated DNA to the PNA construct [1]
1 | ADSLYTYPVATQ (BrAc-ADSLYTYPVATQ-NH2) | does not recognize | recognizes | 
2 | GAGGCCTGCTspacer ATGGCACTTC (PNA, spacer, thioether coupling to polypropylene surface, chemistry not fully specified) [PNA construct, construct of PNA1 and PNA2 coupled via thioether on polypropylene surface] |  |  | binding
